Assay results: PMC8151276, “An Integrated Approach toward NanoBRET Tracers for Analysis of GPCR Ligand Engagement” (Molecules, 2021)

Key:
DRD4 = molecular target: T1, DRD4 (Homo sapiens, UniProt P21917); assay: NanoBRET screen HiBiT-DRD4 in HEK293; format: binding
T1 construct: purchased Promega (in-house HiBiT-GPCR construct library, NanoBRET)
T1 sequence (P21917 1-419): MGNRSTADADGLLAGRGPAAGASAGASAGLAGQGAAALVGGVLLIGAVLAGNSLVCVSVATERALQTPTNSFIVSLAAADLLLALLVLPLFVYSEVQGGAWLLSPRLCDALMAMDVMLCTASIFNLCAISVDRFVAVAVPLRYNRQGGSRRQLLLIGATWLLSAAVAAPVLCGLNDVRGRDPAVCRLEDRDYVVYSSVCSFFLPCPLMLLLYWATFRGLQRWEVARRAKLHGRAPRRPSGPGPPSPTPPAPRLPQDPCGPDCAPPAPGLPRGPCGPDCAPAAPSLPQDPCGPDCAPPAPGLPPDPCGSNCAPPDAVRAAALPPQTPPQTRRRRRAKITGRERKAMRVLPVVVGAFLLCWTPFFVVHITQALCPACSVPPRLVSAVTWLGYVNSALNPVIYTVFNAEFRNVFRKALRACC
Protocol: (§1) Each tracer candidate was screened across the entire library of HiBiT-GPCR constructs using NanoBRET as the detection modality. As depicted in Figure 4A, the specificity of interactions was evaluated through decrease in BRET due to competitive displacement of a bound tracer by excess parental compound. Each tracer was analyzed for binding to each HiBiT-GPCR fusion in the absence and in the presence of competing parental compound. Briefly, HEK293 cells were transfected with HiBiT-GPCR constructs diluted into promoterless DNA to reduce expression and maximize translocation to the cell surface. Each tracer candidate was then screened at concentrations of 1 μM and 0.1 μM across cells expressing these fusions. Cells were treated for 1.5 h with tracer either alone or in the presence of 20 μM competing parental compound (i.e., control). BRET was measured upon addition of purified LgBiT and subsequent complementation with HiBiT genetically fused to a GPCR. The specificity of interactions was assessed through a decrease in BRET signal due to competitive displacement of the bound tracer. To further gauge the robustness of these interactions, the fold response over the control (i.e., BRETtracer/BRETcontrol) was calculated. We chose a 1.5-fold response, which translates to ≥7-fold signal over noise as the minimal threshold required to score an interaction as positive.
(§2) HiBiT-GPCR DNA constructs were diluted in 10 mM Tris pH 8 to a final concentration of 0.01 μg/μL, arrayed in 96-well plates and stored at −20 °C. For transfection, HEK293 cells were suspended in Opti-MEM (without phenol red) supplemented with 2% fetal bovine serum (Seradigm) and 100 units/mL penicillin–streptomycin (Gibco) at a final concentration of 220,000 cells/mL and dispensed into white 96-well plates at 90 μL/well. Subsequent transfections and screens were carried using an Agilent Bravo Automated Liquid Handling Platform. First, the 96-well HiBiT DNA arrays were diluted 25-fold in Opti-MEM (without serum or phenol red) to a final concentration of 0.0004 μg/μL and 20 μL of the diluted DNAs were transferred into new 96-well plates. Next, promoterless carrier DNA (1 μg/μL) was diluted 25-fold (0.04 μg/μL) and then dispensed into the diluted arrays at 20 μL/well. Following brief mixing, Viafect transfection reagent (Promega) diluted 16-fold into Opti-MEM was dispensed into the plates at 40 μL/well. After mixing by pipetting, plates were incubated for 10 min on the pipetting station deck. The DNA-transfection reagent complexes were then added to plates containing cells. To facilitate the screen, 10 μL of DNA-transfection reagent complexes were added in duplicates to the top 4 and bottom 4 rows, resulting in two identical 48-well arrays per plate. Plates with transfected cells were incubated for 18–20 h at 37 °C/5% CO2. A screen of each tracer across the entire library using two different concentrations requires duplicate plates of transfected cells. Depending on the number of tracers being screened, transfections can be scaled up using the same ratios. The next day, for each tracer, four 20× screening solutions in tracer dilution buffer (Promega) were prepared: two duplicates at final concentration of 20 μM and two duplicates at a final concentration of 2 μM. […] The four resulting solutions were diluted 4-fold in Opti-MEM without serum or phenol red to generate 5× solutions (5 µM and 0.5 µM tracer +/− 100 μM competing compound). To screen the library, a BioTek MultiFlo FX liquid dispenser was used to dispense 22.5 µL of tracer solution to the top 4 rows and 22.5 µL tracer + competing compound solution to the 4 bottom rows. Plates were briefly mixed on an orbital shaker and incubated for 1.5 h at room temperature. […] Plates were briefly mixed on an orbital shaker and incubated for 15 min to allow complementation.

HTR1A = molecular target: T2, HTR1A (Homo sapiens, UniProt P08908); assay: NanoBRET screen HiBiT-HTR1A in HEK293; format: binding
T2 construct: purchased Promega (in-house HiBiT-GPCR construct library, NanoBRET)
T2 sequence (P08908 1-422): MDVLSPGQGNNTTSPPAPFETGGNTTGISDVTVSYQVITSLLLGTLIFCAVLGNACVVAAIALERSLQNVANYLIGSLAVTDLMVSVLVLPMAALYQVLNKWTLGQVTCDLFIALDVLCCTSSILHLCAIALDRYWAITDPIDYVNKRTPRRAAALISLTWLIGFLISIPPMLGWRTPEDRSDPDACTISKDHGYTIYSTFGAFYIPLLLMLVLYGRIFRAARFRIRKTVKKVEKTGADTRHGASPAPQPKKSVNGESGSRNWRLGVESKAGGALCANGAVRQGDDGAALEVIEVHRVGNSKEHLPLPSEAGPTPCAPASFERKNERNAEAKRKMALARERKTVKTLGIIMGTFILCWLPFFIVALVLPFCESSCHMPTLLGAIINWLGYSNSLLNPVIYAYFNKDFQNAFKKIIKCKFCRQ
Protocol: as §1, §2

## CCCn1c(=O)c2[nH]c(-c3ccc(OCC(=O)NCCNC(=O)CCOCCNC(=O)c4ccc(CNC(=O)CCc5ccc6n5[B-](F)(F)[N+]5=C(c7ccc[nH]7)C=CC5=C6)cc4)cc3)nc2n(CCC)c1=O [XAC-3-NB590]
DRD4; DRD4, tracer 0.1μM
  NanoBRET Fold Response: 1.27
DRD4; DRD4, tracer 1μM
  NanoBRET Fold Response: 0.82
HTR1A; HTR1A, tracer 0.1μM
  NanoBRET Fold Response: 1.01
HTR1A; HTR1A, tracer 1μM
  NanoBRET Fold Response: 0.89

## N#CN/C(=N\CCNC(=O)c1ccc(N)cc1)NCCCOc1cccc(CN2CCCCC2)c1 [Aminopotentidine (unmodified)]
DRD4; DRD4, other tracers/Aminopotentidine (unmodified), 0.1μM
  NanoBRET Fold Response: 1.24
DRD4; DRD4, other tracers/Aminopotentidine (unmodified), 1μM
  NanoBRET Fold Response: 1.17
HTR1A; HTR1A, other tracers/Aminopotentidine (unmodified), 0.1μM
  NanoBRET Fold Response: 1.28
HTR1A; HTR1A, other tracers/Aminopotentidine (unmodified), 1μM
  NanoBRET Fold Response: 1.69

## CN(CCC=C1c2ccccc2CCc2ccccc21)C(=O)CCOCCOCCOCCOCCNC(=O)CCc1ccc2n1[B-](F)(F)[N+]1=C(c3ccc[nH]3)C=CC1=C2 [Amitriptyline-e-2-NB590]
DRD4; tracer at 1μM
  NanoBRET Fold Response: 1.01
HTR1A; tracer at 1μM
  NanoBRET Fold Response: 0.99

## COc1ccc2c(n1)c(CCNC(C)=O)cn2CCNC(=O)CCc1ccc2n1[B-](F)(F)[N+]1=C(c3ccc[nH]3)C=CC1=C2 [Azamelatonin-1-NB590]
DRD4; 0.1μM tracer
  NanoBRET Fold Response: 0.77
DRD4; 1μM tracer
  NanoBRET Fold Response: 1.03
HTR1A; 0.1μM tracer
  NanoBRET Fold Response: 1.02
HTR1A; 1μM tracer
  NanoBRET Fold Response: 1.02
